Data reported in patent publication US20060234944A1, “Beta-secretase inhibitors and methods of use” (Oklahoma Medical Reseach Foundation, priority 2001, published 2006).

Assays:
[1] = target: T1, memapsin 2 (Homo sapiens, UniProt P56817); experiment: Inhibition of memapsin 2 cleavage of fluorogenic substrate FS-2 (Ki, Ki apparent, Vi/Vo, % inhibition); assay type: biochemical; settings: for Ki: Table 1, apparent Ki in presence of substrate FS-2, N.I. = no inhibition, read-out: Ki app; for % Inh (M1/M2): Table 9, ratio of % inhibition memapsin 1 / memapsin 2, 1 or less = greater inhibition of memapsin 2
T1 construct: made in house; host or cells: E. coli
T1 sequence (P56817 41-454): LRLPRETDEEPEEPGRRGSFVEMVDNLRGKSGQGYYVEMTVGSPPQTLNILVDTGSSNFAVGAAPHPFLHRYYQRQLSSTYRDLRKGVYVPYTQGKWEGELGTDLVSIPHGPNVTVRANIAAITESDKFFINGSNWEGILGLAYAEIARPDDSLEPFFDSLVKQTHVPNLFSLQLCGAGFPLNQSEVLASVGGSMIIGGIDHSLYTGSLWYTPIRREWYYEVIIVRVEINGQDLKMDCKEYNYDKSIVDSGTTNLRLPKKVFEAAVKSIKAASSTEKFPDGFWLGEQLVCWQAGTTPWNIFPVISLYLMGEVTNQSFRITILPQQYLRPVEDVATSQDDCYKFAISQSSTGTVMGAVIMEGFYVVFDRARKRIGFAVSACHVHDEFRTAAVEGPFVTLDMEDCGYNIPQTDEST
Procedure: Ki is the inhibition equilibrium constant which indicates the ability of compounds to inhibit the β-secretase activity of memapsin 2 and memapsin 1. […] The K1 value is independent of the substrate, and converted from Ki apparent.
The Vi/Vo values depicted in Table 1 were determined at conditions under which the enzyme and inhibitor concentrations were equal (e.g., about 80 nM, 100 nM).
The relationship of Ki (independent of substrate concentration) to Kiapp is a function of substrate concentration in the assay and the Km for cleavage of the substrate by either memapsin 1 or memapsin 2 by the relationship: Kiapp=Ki(1+[S]/Km).
Ki is the inhibition equilibrium constant which indicates the ability of compounds to inhibit the β-secretase activity of memapsin 2 and memapsin 1. […] The Ki value is independent of the substrate, and converted from Ki apparent.
An aliquot of the inhibitor of known concentration in DMSO was diluted into 1.8 ml 0.1 M NaOAc, pH 4.0. DMSO and added to a final concentration of 10% (v/v), and memapsin 2 (final concentration of 80 nM), followed by a 20 minute equilibration at 37° C. Compounds were evaluated for the ability to inhibit memapsin 1 and memapsin 2 at concentrations between about 10 nM and about 10 μm of inhibitor.
The relationship of Ki (independent of substrate concentration) to Kiapp is a function of substrate concentration in the assay and the Km for cleavage of the substrate by either memapsin 1 or memapsin 2 by the relationship: Kiapp=Ki (1+[S]/Km).

[2] = test system: plasma Aβ40; experiment: Inhibition of Aβ production in APP/F transgenic mouse model of Alzheimer's disease (plasma Aβ40 sandwich ELISA); assay type: in vivo, mice; settings: for Reduction of plasma Aβ40 / Course of inhibition of plasma Aβ40 over a 24-h period: APP/F mice; for Reduction of plasma Aβ40: about 163 nanomoles i.p., within 30 minutes following injection; for Course of inhibition of plasma Aβ40 over a 24-h period: single i.p. injection; for Blood brain barrier penetration in transgenic mice: concluded from reduction of plasma Aβ
Procedure: Compounds MMI-138, MMI-165, and MMI-185 were synthesized as described above. Compounds were dissolved in 1 ml of dimethyl sulfoxide (DMSO) to a final concentration of about 1 mg/ml for MMI-165 and MMI-185, and about 10 mg/ml for MMI-138. […] Inhibitors were diluted into PBS or H2O immediately prior to injection, as described below. Inhibition constants were determined by methods described by Ermolieff, et al (Biochem. 39:12450-12456 (2000), the teachings of which are incorporated hereby in their entirety).
The tg2576 strain of mice was obtained from Taconic (Germantown, N.Y.). The APP/F strain of mice were obtained by mating the tg2576 mice with the FVB/N strain. To determine presence of the Swedish APP gene in APP/F mice, the DNA from mice was isolated according to the Qiagen Dneasy™ Tissue Kit. PCR (Qiagen kit and protocol) was used to amplify the fragment of DNA corresponding to the human Swedish APP gene. The following primers were used: […]
At the age of three months, animals of the Alzheimer's disease mouse model APP/F were injected intraperitoneally (i.p.) with about 163 nanomoles of either compounds MMI-138 (molecular weight 674 g/mole; 110 μg per animal, n=2), MMI-165 (molecular weight 626 g/mole; 102 μg per animal, n—2), or MMI-185 (molecular weight 686; 112 μg per animal, n—2).
Heparinized capillary tubes collected blood samples from anesthetized animals from either the retro-orbital sinus or from the saphenous vein at specified intervals following injection. The blood samples were transferred to sterile 1.5 mL microcentrifuge tubes, centrifuged at 5,100 RPM for 10 minutes to recover the plasma (supernatant), and stored at −70° C. until analysis for the Aβ40 by Enzyme Linked-Immuno-Sorbent Assay (ELISA).
A sandwich ELISA (BioSource International, Camarillo, Calif.) was used to determine the levels of Aβ40 in plasma samples. The ELISA utilizes a primary antibody specific for human Aβ for the immobilization of the amino-terminus and a detection antibody specific for the carboxy-terminal amino acids of Aβ40. A conjugated secondary antibody was used to detect the ternary complex, using a stabilized chromogen substrate, quantifiable following addition of 1 M HCl, with the optical densities measured at 450 nm. The procedures were followed according to the BioSource protocol. Optical densities were converted to pg/ml quantities of Aβ40 using a linear regression of the optical densities of standards obtained from the commercial kit, to their known concentrations.

Ki [1] [µM]	% Inh (M1/M2) [1]	SMILES	further results
431	–	CSCC[C@H](NC(=O)[C@H](C)NC(=O)[C@H](C)C[C@H](O)[C@H](CC(C)C)NC(=O)OC(C)(C)C)C(=O)NCc1ccccc1 [MMI-002]	–
150	–	CSCC[C@H](NC(=O)[C@@H](NC(=O)OC(C)(C)C)C(C)C)C(=O)N[C@@H](CC(C)C)[C@@H](O)C[C@@H](C)C(=O)N[C@H]1c2ccccc2C[C@H]1O [MMI-046]	–
631	–	CSCC[C@H](NC(=O)[C@@H](NC(=O)OC(C)(C)C)C(C)C)C(=O)N[C@@H](CC(C)C)[C@@H](O)C[C@@H](C)C(=O)N[C@H]1CCCC[C@@H]1O [MMI-055]	–
15500	–	CSCC[C@H](NC(=O)[C@@H](NC(=O)OC(C)(C)C)C(C)C)C(=O)N[C@@H](CC(C)C)[C@@H](O)CN(C)C(=O)[C@H](NC(=O)OCc1ccccc1)C(C)C [MMI-061]	–
110	–	CSCC[C@H](NC(=O)[C@@H](NC(=O)OC(C)(C)C)C(C)C)C(=O)N[C@@H](CC(C)C)[C@@H](O)C[C@@H](C)C(=O)N[C@@H](C(C)C)C1CCCCO1 (stereo partly shown) [MMI-130]	–
–	1.30	CSCC[C@H](NC(=O)[C@@H](NC(=O)OC(C)(C)C)C(C)C)C(=O)N[C@@H](CC(C)C)[C@@H](O)C[C@@H](CO)C(=O)N[C@H](C(=O)NCc1ccccc1)C(C)C [MMI-132]	–
–	0.10	CSCC[C@H](NC(=O)OCn1nc(C)cc1C)C(=O)N[C@@H](CC(C)C)[C@@H](O)C[C@@H](C)C(=O)N[C@H](C(=O)NCc1ccccc1)C(C)C [MMI-138]	Ki for memapsin 2 lower than Ki for memapsin 1 (selectivity) ([1]; memapsin 2 relative to memapsin 1, stated in text): about 60 fold; Reduction of plasma Aβ40 [2]: 57%; Course of inhibition of plasma Aβ40 over a 24-h period [2]: remained nearly constant; Blood brain barrier penetration in transgenic mice [2]: penetrated the blood brain barrier
–	0.47	CSCC[C@H](NC(=O)OCn1nc(C)cc1C)C(=O)N[C@@H](CC(C)C)[C@@H](O)C[C@@H](C)C(=O)N[C@H](C(=O)NCC(C)C)C(C)C [MMI-156]	–
–	0.45	CSCC[C@H](NC(=O)OCn1nc(C)cc1C)C(=O)N[C@@H](CC(C)C)[C@@H](O)C[C@@H](C)C(=O)N[C@H](C(=O)NC(C)C)C(C)C [MMI-165]	Reduction of plasma Aβ40 [2]: 46%; Course of inhibition of plasma Aβ40 over a 24-h period [2]: remained nearly constant; Blood brain barrier penetration in transgenic mice [2]: penetrated the blood brain barrier
–	0.18	CCCCNC(=O)[C@@H](NC(=O)[C@H](C)C[C@H](O)[C@H](CC(C)C)NC(=O)[C@H](CCSC)NC(=O)OCn1nc(C)cc1C)C(C)C [MMI-167]	–
–	0.18	CSCC[C@H](NC(=O)OCn1nc(C)cc1C)C(=O)N[C@@H](CC(C)C)[C@@H](O)C[C@@H](C)C(=O)N[C@@H](CC(C)C)C(=O)NC(CF)CF [MMI-171]	–
–	0	CSCC[C@H](NC(=O)OCCn1nc(C)cc1C)C(=O)N[C@@H](CC(C)C)[C@@H](O)C[C@@H](C)C(=O)N[C@@H](CC(C)C)C(=O)NCC(C)C [MMI-176]	–
–	0	CSCC[C@H](NC(=O)OCCn1nc(C(C)C)cc1C(C)C)C(=O)N[C@@H](CC(C)C)[C@@H](O)C[C@@H](C)C(=O)N[C@H](C(=O)NCC(C)C)C(C)C [MMI-180]	–
–	0.19	CSCC[C@H](NC(=O)OCn1nc(C)cc1C)C(=O)N[C@@H](CC(C)C)[C@@H](O)C[C@]1(C)CCN([C@@H](CC(C)C)C(=O)NCC(C)C)C1=O [MMI-181]	–
–	0	CCCCNC(=O)[C@H](C(C)C)N1CC[C@@](C)(C[C@H](O)[C@H](CC(C)C)NC(=O)[C@H](CCSC)NC(=O)OCn2nc(C)cc2C)C1=O [MMI-182]	–

The remaining lines, values behind:

SMILES	Ki [1] [µM]	% Inh (M1/M2) [1]	further results
CC(C)C[C@H](NC(=O)OC(C)(C)C)[C@@H](O)C[C@@H](C)C(=O)N[C@@H](C)C(=O)NCc1ccccc1 [MMI-001]	3740	–	–
CC(C)C[C@H](NC(=O)OC(C)(C)C)[C@@H](O)C[C@@H](C)C(=O)N[C@@H](C)C(=O)N[C@@H](CCS(C)(=O)=O)C(=O)NCc1ccccc1 [MMI-003]	2620	–	–
CC(C)C[C@H](NC(=O)[C@H](CCS(C)(=O)=O)NC(=O)[C@@H](NC(=O)OC(C)(C)C)C(C)C)[C@@H](O)C[C@@H](C)C(=O)N[C@H]1c2ccccc2C[C@H]1O [MMI-047]	111	–	–
CC(C)C[C@H](NC(=O)[C@H](CCO)NC(=O)c1cnc2ccccc2c1)[C@@H](O)C[C@@H](C)C(=O)N[C@H](C(=O)N[C@H]1c2ccccc2C[C@H]1O)C(C)C [MMI-049]	198	–	–
CCC(C)[C@H](NC(=O)[C@H](C)C[C@H](O)[C@H](CC(C)C)NC(=O)[C@H](CCO)NC(=O)c1cnc2ccccc2c1)C(=O)N[C@H]1c2ccccc2C[C@H]1O (stereo partly shown) [MMI-050]	146	–	–
CC(C)C[C@H](NC(=O)[C@H](CCS(C)(=O)=O)NC(=O)[C@@H](NC(=O)OC(C)(C)C)C(C)C)[C@@H](O)C[C@@H](C)C(=O)N[C@@H]1c2ccccc2C[C@@H]1O [MMI-054]	469	–	–
CC(C)C[C@H](NC(=O)[C@H](CCS(C)(=O)=O)NC(=O)[C@@H](NC(=O)OC(C)(C)C)C(C)C)[C@@H](O)C[C@@H](C)C(=O)N[C@@H]1CCCC[C@@H]1O [MMI-058]	408	–	–
CC(C)C[C@H](NC(=O)[C@H](CCS(C)(=O)=O)NC(=O)[C@@H](NC(=O)OC(C)(C)C)C(C)C)[C@@H](O)C[C@@H](C)C(=O)N[C@@H]1CCCC[C@@H]1O [MMI-060]	101	–	–
CC(C)C[C@H](NC(=O)[C@H](CCS(C)(=O)=O)NC(=O)[C@@H](NC(=O)OC(C)(C)C)C(C)C)[C@@H](O)C[C@@H](C)C(=O)N[C@@H](C(=O)NCc1ccccc1)[C@@H](C)O [MMI-073]	–	0.73	–
CSCC[C@H](NC(=O)[C@@H](NC(=O)OC(C)(C)C)C(C)C)C(=O)N[C@@H](CC(C)C)[C@@H](O)C[C@@H](CO)C(=O)N[C@H](C(=O)NCc1ccccc1)C(C)C [MMI-078]	–	–	% Inh (M1/M2) ([1]; listed as 78): 0.76
Cc1c(O)cccc1C(=O)N[C@@H](C(C)C)[C@@H](O)N[C@@H](CCS(C)(=O)=O)C(=O)N[C@@H](CC(C)C)[C@@H](O)C[C@@H](C)C(=O)N[C@@H](CC(C)C)C(=O)NCc1ccccc1 [MMI-122]	–	–	Vi/Vo ([1]; ratio of initial cleavage velocities of FS-2 with/without compound, enzyme and inhibitor concentrations equal (e.g., about 80 nM, 100 nM)): 1.17
Cc1cc(C)n(COC(=O)N[C@@H](CCS(C)(=O)=O)C(=O)N[C@@H](CC(C)C)[C@@H](O)C[C@@H](C)C(=O)N[C@H](C(=O)NCc2ccccc2)C(C)C)n1 [MMI-139]	–	0	–
COCC[C@H](NC(=O)[C@H](CC(C)C)NC(=O)OC(C)(C)C)C(=O)N[C@@H](CC(C)C)[C@@H](O)C[C@@H](C)C(=O)N[C@@H](CC(C)C)C(=O)NC(C)C [MMI-185]	–	–	Reduction of plasma Aβ40 [2]: 63%; Course of inhibition of plasma Aβ40 over a 24-h period [2]: appeared to return to initial level; Blood brain barrier penetration in transgenic mice [2]: penetrated the blood brain barrier
